According to patent US12662451B2, “Chemical compounds and uses thereof” (GLAXOSMITHKLINE INTELLECTUAL PROPERTY (NO.4) LIMITED, priority 2023, dated 2026):

Legend:
[1] = target: T1, recombinant full-length WRN protein (1-1432) (Homo sapiens, UniProt Q14191); assay: WRN unwinding activity, fluorogenic 384-well assay (Example A); assay type: biochemical; details: WRN unwinding activity, 4 hr; Table 2; read-out: 4 hr UNW pIC50 (converted)
T1 construct: recombinant full-length WRN protein (1-1432)
Procedure, shortened: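 200 pM enzyme (2× stock) preincubated with compound 4 h at ambient temperature, then 200 μM ATP and 12 nM quenched TAMRA-labelled dsDNA (2× stocks) added for 60 min; EDTA-quenched. Buffer 25 mM Tris pH 8.0, 5 mM NaCl, 2 mM MgCl2. Fluorescence at 525/598 nm; pIC50 from four-parameter fit.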

[2] = tested on: SW48 human colorectal cancer cells (MSI-H cancer cells); assay: SW48 cell viability, CellTiter-Glo, 120 hours (Example B); details: Homo sapiens, SW48, 120 h, read-out: SW48 pCC50, SW48 cell viability, 120 hours incubation (converted); Table 2

T1 sequence (Q14191 whole entry): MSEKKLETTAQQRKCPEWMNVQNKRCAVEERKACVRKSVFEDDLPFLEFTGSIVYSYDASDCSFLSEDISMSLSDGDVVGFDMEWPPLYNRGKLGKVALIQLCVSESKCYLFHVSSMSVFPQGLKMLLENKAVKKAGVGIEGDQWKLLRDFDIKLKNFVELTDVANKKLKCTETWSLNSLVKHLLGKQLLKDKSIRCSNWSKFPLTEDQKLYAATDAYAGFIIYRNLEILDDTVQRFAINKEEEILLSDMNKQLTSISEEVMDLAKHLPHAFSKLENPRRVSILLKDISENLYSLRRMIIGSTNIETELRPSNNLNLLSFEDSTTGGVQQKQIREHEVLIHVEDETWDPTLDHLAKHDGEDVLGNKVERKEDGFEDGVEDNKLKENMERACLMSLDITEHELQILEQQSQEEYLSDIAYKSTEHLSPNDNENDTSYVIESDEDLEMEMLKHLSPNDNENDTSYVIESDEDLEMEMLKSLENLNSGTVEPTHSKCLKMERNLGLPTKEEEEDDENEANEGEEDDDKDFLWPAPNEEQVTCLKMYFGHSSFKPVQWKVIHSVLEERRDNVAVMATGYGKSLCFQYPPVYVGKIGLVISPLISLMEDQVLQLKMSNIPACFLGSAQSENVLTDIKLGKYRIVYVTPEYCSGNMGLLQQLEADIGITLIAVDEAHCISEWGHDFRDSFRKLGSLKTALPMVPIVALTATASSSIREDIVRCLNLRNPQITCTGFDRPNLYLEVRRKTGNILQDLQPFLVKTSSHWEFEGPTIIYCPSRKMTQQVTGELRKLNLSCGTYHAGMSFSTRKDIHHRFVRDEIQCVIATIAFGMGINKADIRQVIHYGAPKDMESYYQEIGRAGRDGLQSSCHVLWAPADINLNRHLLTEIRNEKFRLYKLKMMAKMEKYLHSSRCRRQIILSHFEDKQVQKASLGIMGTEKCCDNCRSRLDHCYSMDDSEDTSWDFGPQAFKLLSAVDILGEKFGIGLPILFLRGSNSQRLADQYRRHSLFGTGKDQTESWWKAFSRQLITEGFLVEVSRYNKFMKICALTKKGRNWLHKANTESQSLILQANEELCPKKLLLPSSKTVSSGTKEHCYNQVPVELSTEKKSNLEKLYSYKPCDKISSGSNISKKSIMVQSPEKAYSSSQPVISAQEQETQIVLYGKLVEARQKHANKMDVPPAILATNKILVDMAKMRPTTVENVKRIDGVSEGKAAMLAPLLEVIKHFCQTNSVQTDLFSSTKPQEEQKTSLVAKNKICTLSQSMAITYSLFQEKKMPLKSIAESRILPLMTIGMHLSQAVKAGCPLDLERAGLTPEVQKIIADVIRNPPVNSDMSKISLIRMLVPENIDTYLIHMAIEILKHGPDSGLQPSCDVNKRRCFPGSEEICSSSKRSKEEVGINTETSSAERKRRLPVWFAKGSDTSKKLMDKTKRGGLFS

Row | IC50 [1] [nM] | Structure (SMILES) | CC50 [2] [nM]
1 | 25.1 | O=C(O)[C@@H]1[C@@H](c2ccc([C@H]3CCC(F)(F)C3)cc2)CCC[C@H]1C(=O)Nc1ccc(C(F)(F)F)cc1F (racemic) [Example 64, 1:1 Mixture of (1R,2S,6R)-2-(4-((S)-3,3-difluorocyclopentyl)phenyl)-6-((2-fluoro-4-(trifluoromethyl)phenyl)carbamoyl)cyclohexane-1-carboxylic acid AND (1R,2S,6R)-2-(4-((R)-3,3-difluorocyclopentyl)phenyl)-6-((2-fluoro-4-(trifluoromethyl)phenyl)carbamoyl)cyclohexane-1-carboxylic acid] | 15800
2 | 6.31 | Cc1nc2cc(S(=O)(=O)N(C)c3ccc([C@H]4CCC[C@@H](C(=O)Nc5ccc(C(C)C)cc5)[C@H]4C(=O)O)cc3)ccc2n1C (racemic) [Example 75, rac-(1R,2S,6R)-2-((4-isopropylphenyl)carbamoyl)-6-(4-((N,1,2-trimethyl-1H-benzo[d]imidazole)-5-sulfonamido)phenyl)cyclohexane-1-carboxylic acid] | 5010
3 | 2 | Cc1nc2cc(S(=O)(=O)N(C)c3ccc([C@H]4CCC[C@@H](C(=O)Nc5ccc(C(C)C)cc5)[C@@H]4C(=O)O)cc3)ccc2n1C (racemic) [Example 78, rac-(1R,2R,6S)-2-((4-isopropylphenyl)carbamoyl)-6-(4-((N,1,2-trimethyl-1H-benzo[d]imidazole)-5-sulfonamido)phenyl)cyclohexane-1-carboxylic acid] | 1000
4 | 7.94 | Cc1nc2cc(S(=O)(=O)N(C)c3ccc([C@H]4CCC[C@@H](C(=O)Nc5ccc(C(F)(F)F)cc5F)[C@@H]4C(=O)O)cc3)ccc2n1C (racemic) [Example 81, rac-(1R,2R,6S)-2-((2-fluoro-4-(trifluoromethyl)phenyl)carbamoyl)-6-(4-((N,1,2-trimethyl-1H-benzo[d]imidazole)-5-sulfonamido)phenyl)cyclohexane-1-carboxylic acid] | 1260
5 | 79.4 | C=C(F)C(=O)Nc1ccc([C@H]2CCC[C@@H](C(=O)Nc3ccc(C(F)(F)F)cc3F)[C@@H]2C(=O)O)cc1 (racemic) [Example 227, rac-(1R,2R,6S)-2-((2-fluoro-4-(trifluoromethyl)phenyl)carbamoyl)-6-(4-(2-fluoroacrylamido)phenyl)cyclohexane-1-carboxylic acid] | 15800
6 | 1.58 | Cc1nc2cc(S(=O)(=O)N(C)c3ccc([C@H]4COC[C@@H](C(=O)Nc5ccc(C(F)(F)F)cc5F)[C@@H]4C(=O)O)cc3)ccc2n1C (racemic) [Example 232, rac-(3R,4S,5R)-3-((2-fluoro-4-(trifluoromethyl)phenyl)carbamoyl)-5-(4-((N,1,2-trimethyl-1H-benzo[d]imidazole)-5-sulfonamido)phenyl)tetrahydro-2H-pyran-4-carboxylic acid] | 1260
7 | 12.6 | Cc1nc2cc(S(=O)(=O)N(C)c3ccc([C@H]4C[C@@](C)(O)C[C@@H](C(=O)Nc5ccc(C(F)(F)F)cc5F)[C@@H]4C(=O)O)cc3)ccc2n1C (racemic) [Example 356, rac-(1R,2R,4R,6S)-2-((2-fluoro-4-(trifluoromethyl)phenyl)carbamoyl)-4-hydroxy-4-methyl-6-(4-((N,1,2-trimethyl-1H-benzo[d]imidazole)-5-sulfonamido)phenyl)cyclohexane-1-carboxylic acid] | 1260
8 | 316 | Cc1nc2cc(S(=O)(=O)N(C)c3ccc([C@@H]4C[C@H](N5CCC(F)(F)C5)C[C@H](C(=O)Nc5ccc(C(F)(F)F)cc5F)[C@H]4C(=O)O)cc3)ccc2n1C [Example 305, (1S,2S,4S,6R)-4-(3,3-difluoropyrrolidin-1-yl)-2-((2-fluoro-4-(trifluoromethyl)phenyl)carbamoyl)-6-(4-((N,1,2-trimethyl-1H-benzo[d]imidazole)-5-sulfonamido)phenyl)cyclohexane-1-carboxylic acid] | –
